# According to patent publication US20140057895A1, “INDAZOLE- AND PYRROLOPYRIDINE-DERIVATIVE AND PHARMACEUTICAL USE THEREOF” (priority 2011, published 2014):
# Where a name gives a salt, the structure may show the parent alone. Read-outs that look alike come from different tables or passages of the source.
# Assays:
# 5-HT4 receptor = molecular target: T1, 5-HT4 receptor (Cavia porcellus, UniProt O70528); assay: Test Example 3: Guinea pig 5-HT4 receptor binding assay, [3H]-GR113808, striatum membranes (Table 98)
# T1 construct: striatum was isolated which was cryopreserved at −80° C. until use; from tissue; host or cells: guinea pig (Slc-Hartley) striatum membranes
# Procedure, shortened: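 Striatal membranes from Slc-Hartley guinea pigs were incubated with 0.1 nM [3H]-GR113808 and test compounds in 50 mM Hepes pH 7.4 at 37° C for 30 min; nonspecific binding was defined with 30 μM serotonin. Bound radioactivity was collected by filtration, and IC50 was derived from inhibition of specific binding.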
# human 5-HT4b receptor = molecular target: T2, human 5-HT4b receptor (Homo sapiens, UniProt Q13639); assay: Test Example 4: Serotonin 4 (5-HT4) receptor agonist activity assay, cAMP HTRF in CHO cells (Table 100); format: cell-based; settings: mean value; for Emax: CHO, 0.25 h, intrinsic activity, maximal activity of 5-HT defined as 100%, read-out: IA (%); for EC50: concentration showing 50% of IA
# T2 construct: expressed in transfected cells; host or cells: CHO cells (G418 selection)
# Protocol: The cAMP measurement test used herein was carried out by using CISBIO HTRF (trademark) cAMP Hirange kit according to the manufacturer's instructions attached therewith.
# CHO cells expressing human 5-HT4b receptor were incubated in Medium 1 [DMEM/1% NEAA, 1% penicillin/streptomycin (P/S), 0.2 mg/mL GENETICIN (G418), 10% FBS] at 37° C. under 5% CO2 condition. Then, the cells were put into Medium 2 (DMEM/10000 cut FBS, G-418, P/S, NEAA) for 1 to 2 hours, and collected by treating with trypsin containing EDTA. The collected cells were suspended in Assay Buffer 1 [100 mM Hanks/HEPES buffer (pH 7.4)], the suspended cells were mixed with the testing compound on 384-well plates, and the cells were incubated at 31° C. for 15 minutes. To the cells were added cAMP-cryptate solution and cAMP-d2 solution, and they were incubated at room temperature for 1 hour. Then, time-resolved fluorescence was measured by En Vision (excitation wavelength: 330 nm, fluorescence wavelength: 620/665 nm).
# An intrinsic activity of the compound [IA (%)] and a concentration showing 50% of IA [EC50 (nM)] were calculated from the obtained results. In particular, the intrinsic activity (IA) was calculated on the basis of the maximal activity of 5-HT (measured from 10^−11 M to 10^−7 M) defined as 100%.
# In the following table, the compounds used in the test are shown in numbers which correspond to the Example numbers above where the preparations of the compounds are described.
# [1] = Guinea pig 5-HT4 receptor binding assay, [3H]-GR113808, striatum membranes, mean value of each group, read-out: IC50
# T2 sequence (Q13639 whole entry): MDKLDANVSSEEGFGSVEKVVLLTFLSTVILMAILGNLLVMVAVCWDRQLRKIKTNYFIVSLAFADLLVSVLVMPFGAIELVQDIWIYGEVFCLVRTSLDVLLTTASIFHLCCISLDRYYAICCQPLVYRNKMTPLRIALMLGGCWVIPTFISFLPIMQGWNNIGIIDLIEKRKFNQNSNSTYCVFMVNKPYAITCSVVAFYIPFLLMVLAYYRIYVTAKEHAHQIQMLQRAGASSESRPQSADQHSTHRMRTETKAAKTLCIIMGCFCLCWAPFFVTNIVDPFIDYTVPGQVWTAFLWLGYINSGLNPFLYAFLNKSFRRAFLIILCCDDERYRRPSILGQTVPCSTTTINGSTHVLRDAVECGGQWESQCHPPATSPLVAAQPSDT
# T1 sequence (O70528 whole entry): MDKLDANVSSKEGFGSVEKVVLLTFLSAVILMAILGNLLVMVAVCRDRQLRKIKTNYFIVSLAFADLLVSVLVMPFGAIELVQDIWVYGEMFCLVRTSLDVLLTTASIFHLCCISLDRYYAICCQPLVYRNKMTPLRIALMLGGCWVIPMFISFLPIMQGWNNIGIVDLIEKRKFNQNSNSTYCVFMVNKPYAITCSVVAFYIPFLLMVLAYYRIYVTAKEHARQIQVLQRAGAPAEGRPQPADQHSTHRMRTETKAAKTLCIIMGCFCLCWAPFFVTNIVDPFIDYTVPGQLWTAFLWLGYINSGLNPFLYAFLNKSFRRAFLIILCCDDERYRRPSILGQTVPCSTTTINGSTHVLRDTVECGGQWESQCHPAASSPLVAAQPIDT
SMILES,Emax (human 5-HT4b receptor) [%],EC50 (human 5-HT4b receptor) [nM],IC50 (5-HT4 receptor; [1]) [nM],IC50 (5-HT4 receptor) [nM]
"CC(C)c1nn(-c2noc(C3CCN([C@H]4C[C@H]5CC[C@@H](C4)N5C(=O)CO)CC3)n2)c2c(F)cccc12 [Example 532, 1-[(3-endo)-3-(4-{3-[7-fluoro-3-(propan-2-yl)-1H-indazol-1-yl]-1,2,4-oxadiazol-5-yl}piperidin-1-yl)-8-azabicyclo[3.2.1]oct-8-yl]-2-hydroxyethanone]",99,5,,< 20
"CCc1nn(-c2noc(C3CCN(CC4CCN(C(C)=O)CC4)CC3)n2)c2c(F)c(F)ccc12 [Example 478, 1-[4-({4-[3-(3-ethyl-6,7-difluoro-1H-indazol-1-yl)-1,2,4-oxadiazol-5-yl]piperidin-1-yl}methyl)piperidin-1-yl]ethanone trifluoroacetate]",68.7,32.4,< 20,
"CC(C)c1nn(-c2noc(C3CCN([C@@H]4C[C@H]5CC[C@@H](C4)N5C(=O)CO)CC3)n2)c2c(F)cccc12 [Example 533, 1-[(3-exo)-3-(4-{3-[7-fluoro-3-(propan-2-yl)-1H-indazol-1-yl]-1,2,4-oxadiazol-5-yl}piperidin-1-yl)-8-azabicyclo[3.2.1]oct-8-yl]-2-hydroxyethanone]",102,3.8,,< 20
"CCc1nn(-c2noc(C3CCN(CC4CCOCC4)CC3)n2)c2c(F)c(F)ccc12 [Example 449, 3-ethyl-6,7-difluoro-1-{5-[1-(tetrahydro-2H-pyran-4-ylmethyl)piperidin-4-yl]-1,2,4-oxadiazol-3-yl}-1H-indazole trifluoroacetate]",76.4,31.2,< 20,
"CC(C)c1nn(-c2noc(C3CCN(C4CCN(C(=O)CO)CC4C)CC3)n2)c2c(F)cccc12 (stereo not drawn) [Example 530, 1-(4-{3-[7-fluoro-3-(propan-2-yl)-1H-indazol-1-yl]-1,2,4-oxadiazol-5-yl}-3′-methyl-1,4′-bipiperidin-1′-yl)-2-hydroxyethanone]",97,3.1,< 20,
"CC(=O)N1CC(CN2CCC(c3nc(-n4nc(C(C)C)c5cccc(F)c54)no3)CC2)C1 [Example 219, 1-{3-[(4-{3-[7-fluoro-3-(propan-2-yl)-1H-indazol-1-yl]-1,2,4-oxadiazol-5-yl}piperidin-1-yl)methyl]azetidin-1-yl}ethanone hydrochloride]",96.9,2.8,< 20,
"COCC(=O)N1CCC(N2CCC(c3nc(-n4nc(C(C)C)c5cccc(F)c54)no3)CC2)CC1 [Example 233, 1-(4-{3-[7-fluoro-3-(propan-2-yl)-1H-indazol-1-yl]-1,2,4-oxadiazol-5-yl}-1,4′-bipiperidin-1′-yl)-2-methoxyethanone hydrochloride]",93.5,2.9,< 20,
"CC(=O)N1CCC(N2CCC(c3nc(-n4nc(C(C)C)c5ccccc54)no3)CC2)CC1 [Example 458, 1-(4-{3-[3-(propan-2-yl)-1H-indazol-1-yl]-1,2,4-oxadiazol-5-yl}-1,4′-bipiperidin-1′-yl)ethanone trifluoroacetate]",85.4,2.7,66,
"COCC(=O)N1CC(CN2CCC(c3nc(-n4nc(C(C)C)c5cccc(F)c54)no3)CC2)C1 [Example 221, 1-{3-[(4-{3-[7-fluoro-3-(propan-2-yl)-1H-indazol-1-yl]-1,2,4-oxadiazol-5-yl}piperidin-1-yl)methyl]azetidin-1-yl}-2-methoxyethanone hydrochloride]",86.1,6.1,< 20,
"CCc1nn(-c2noc(C3CCN(C4CCOCC4)CC3)n2)c2c(F)c(F)ccc12 [Example 448, 3-ethyl-6,7-difluoro-1-{5-[1-(tetrahydro-2H-pyran-4-yl)piperidin-4-yl]-1,2,4-oxadiazol-3-yl}-1H-indazole trifluoroacetate]",57.5,8.9,< 20,
"COC(=O)N1CC(CN2CCC(c3nc(-n4nc(C(C)C)c5cccc(F)c54)no3)CC2)C1 [Example 220, methyl 3-[(4{3-[7-fluoro-3-(propan-2-yl)-1H-indazol-1-yl]-1,2,4-oxadiazol-5-yl}piperidin-1-yl)methyl]azetidine-1-carboxylate hydrochloride]",92.4,4.8,< 20,
"CCc1nn(-c2noc(C3CCN(CC4CCN(C(=O)CO)CC4)CC3)n2)c2c(F)cccc12 [compound 246, 1-[4-({4-[3-(3-ethyl-7-fluoro-1H-indazol-1-yl)-1,2,4-oxadiazol-5-yl]piperidin-1-yl}methyl)piperidin-1-yl]-2-hydroxyethanone]",56.6,21.1,< 20,

# Further lines, with some results ahead:
Emax (human 5-HT4b receptor) [%],EC50 (human 5-HT4b receptor) [nM],IC50 (5-HT4 receptor; [1]) [nM],SMILES,IC50 (5-HT4 receptor) [nM]
79.7,3.5,< 20,"CCc1nn(-c2noc(C3CCN(CC4CN(C(=O)CO)C4)CC3)n2)c2c(F)cccc12 [compound 250, 1-[3-({4-[3-(3-ethyl-7-fluoro-1H-indazol-1-yl)-1,2,4-oxadiazol-5-yl]piperidin-1-yl}methyl)azetidin-1-yl]-2-hydroxyethanone]",
73.8,7.1,< 20,"COCC(=O)N1CCC(CN2CCC(c3nc(-n4nc(C(C)C)c5ccc(F)c(F)c54)no3)CC2)CC1 [Example 481, 1-{4-[(4-{3-[6,7-difluoro-3-(propan-2-yl)-1H-indazol-1-yl]-1,2,4-oxadiazol-5-yl}piperidin-1-yl)methyl]piperidin-1-yl}-2-methoxyethanone trifluoroacetate]",
51.9,9.7,< 20,"CCc1nn(-c2noc(C3CCN(C4CCN(C(=O)COC)CC4)CC3)n2)c2c(F)cccc12 [Example 237, 1-{4-[3-(3-ethyl-7-fluoro-1H-indazol-1-yl)-1,2,4-oxadiazol-5-yl]-1,4′-bipiperidin-1′-yl}-2-methoxyethanone hydrochloride]",
54.3,47.2,29.7,"CC(=O)N1CC(CN2CCC(c3nc(-n4nc(C(C)C)c5ccc(F)c(F)c54)no3)CC2)C1 [Example 472, 1-{3-[(4-{3-[6,7-difluoro-3-(propan-2-yl)-1H-indazol-1-yl]-1,2,4-oxadiazol-5-yl}piperidin-1-yl)methyl]azetidin-1-yl}ethanone trifluoroacetate]",
39,5.8,< 20,"CCc1nn(-c2noc(C3CCN(C[C@@H]4CCN(C(=O)COC)C4)CC3)n2)c2c(F)cccc12 [Example 202, 1-[(3S)-3-({4-[3-(3-ethyl-7-fluoro-1H-indazol-1-yl)-1,2,4-oxadiazol-5-yl]piperidin-1-yl}methyl)pyrrolidin-1-yl]-2-methoxyethanone]",
70.4,13.4,30,"CCc1nn(-c2noc(C3CCN(CC4CN(C(=O)OC)C4)CC3)n2)c2c(F)c(F)ccc12 [Example 470, methyl 3-({4-[3-(3-ethyl-6,7-difluoro-1H-indazol-1-yl)-1,2,4-oxadiazol-5-yl]piperidin-1-yl}methyl)azetidine-1-carboxylate trifluoroacetate]",
68.6,5,< 20,"CCc1nn(-c2noc(C3CCN(C[C@H]4CCN(C(=O)COC)C4)CC3)n2)c2c(F)cccc12 [Example 210, 1-[(3R)-3-({4-[3-(3-ethyl-7-fluoro-1H-indazol-1-yl)-1,2,4-oxadiazol-5-yl]piperidin-1-yl}methyl)pyrrolidin-1-yl]-2-methoxyethanone hydrochloride]",
